From ChEMBL document CHEMBL1150714, “1,3,7-Trimethylguanine from the Sponge Latrunculia brevis” (J Nat Prod, 1987)

Tested on: P388
Assay: Cytotoxicity against mouse P388 cells
Type: functional, cell-based

Structure (SMILES): Cn1c(=O)c2c(ncn2C)n(C)c1=N
- EC50: > 10 µg/mL
